Experimental data published in ChEMBL document CHEMBL1201862, “PubChem BioAssay data set” (2004).
The source made the active and inactive calls.

Legend:
[1] = system: BJ; assay: cytotoxicity toward BJ-TERT fibroblasts, dose response, cell-based, RAS-independent, luminescence (AID 1933); format: functional; details: Homo sapiens
[2] = system: BJ; assay: cells; format: functional, cell-based; details: Homo sapiens
[3] = inhibitors of intracellular T. cruzi replication, confirmation, NIH3T3 host cells, beta-gal luminescence (AID 2044); format: functional, cell-based;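 also: intracellular parasites grown in NIH/3T3 mouse fibroblasts as host cells; luminescent beta-galactosidase reporter signal from transgenic T. cruzi replicating inside host cells; inhibitors lower the luminescence signal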
[4] = system: BJ; assay: cytotoxicity toward BJ-TERT-LT-ST fibroblasts, dose response, cell-based, RAS-independent, luminescence (AID 1935); format: functional; details: Homo sapiens;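 also: BJ fibroblasts immortalized with TERT plus LT and ST oncogenes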
[5] = cytotoxicity toward DRD oncogenic fibroblasts, dose response, cell-based, non-viral oncogenic, luminescence (AID 1934); format: functional; details: Homo sapiens
[6] = HepG2 cell cytotoxicity, dose response, cytotoxicity control for non-replicating M. tuberculosis project (AID 489018); format: functional; details: Mycobacterium tuberculosis
[7] = target: Phospholipase A2 (Homo sapiens, UniProt P04054); format: functional;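 also: confirmatory dose-response counterscreen on phospholipase A2, testing hits that came from an ultra-high-throughput screen for ATG4B inhibitors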
[8] = system: INS1; assay: beta cell apoptosis inhibitors, cytokine rescue, dose response, luminescence, retest (AID 449756); format: functional, cell-based; details: Rattus norvegicus;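 also: cell death triggered by IL-1 beta plus TNF-alpha plus IFN-gamma mixture; protective hits raise ATP signal compared with cytokine alone wells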
[9] = target: T1, Caspase-6 (Homo sapiens, UniProt P55212); assay: human caspase-6 inhibitors, dose response, biochemical, VEID-R110 fluorescence, cherry-pick (AID 720632)
T1 sequence (P55212 whole entry): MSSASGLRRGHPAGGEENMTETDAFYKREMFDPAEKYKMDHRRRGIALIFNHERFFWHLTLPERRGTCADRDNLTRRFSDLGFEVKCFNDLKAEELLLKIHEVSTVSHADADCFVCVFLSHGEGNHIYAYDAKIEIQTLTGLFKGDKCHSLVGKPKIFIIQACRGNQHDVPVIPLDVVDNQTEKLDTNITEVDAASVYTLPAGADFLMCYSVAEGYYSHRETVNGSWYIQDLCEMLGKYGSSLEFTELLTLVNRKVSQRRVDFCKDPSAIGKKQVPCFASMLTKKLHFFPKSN

[10] = target: T2, Caspase-3 (Homo sapiens, UniProt P42574); format: functional;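 also: Dose-response selectivity test against caspase-3 for candidate inhibitors of sentrin-specific proteases (SENPs)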
T2 sequence (P42574 whole entry): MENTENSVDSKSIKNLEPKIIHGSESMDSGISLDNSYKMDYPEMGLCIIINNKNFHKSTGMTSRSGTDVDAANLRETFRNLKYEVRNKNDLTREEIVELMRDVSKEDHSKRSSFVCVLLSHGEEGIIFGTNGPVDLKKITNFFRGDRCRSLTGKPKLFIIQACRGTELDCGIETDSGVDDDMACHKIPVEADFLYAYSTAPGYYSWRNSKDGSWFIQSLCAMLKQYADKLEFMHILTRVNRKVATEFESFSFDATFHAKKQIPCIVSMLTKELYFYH

[11] = target: T3, Sentrin-specific protease 7 (Homo sapiens, UniProt Q9BQF6); format: functional;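 also: Luminescence-based dose-response confirmation of ultra-high-throughput screening hits, measuring inhibition of SENP7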
T3 sequence (Q9BQF6 whole entry): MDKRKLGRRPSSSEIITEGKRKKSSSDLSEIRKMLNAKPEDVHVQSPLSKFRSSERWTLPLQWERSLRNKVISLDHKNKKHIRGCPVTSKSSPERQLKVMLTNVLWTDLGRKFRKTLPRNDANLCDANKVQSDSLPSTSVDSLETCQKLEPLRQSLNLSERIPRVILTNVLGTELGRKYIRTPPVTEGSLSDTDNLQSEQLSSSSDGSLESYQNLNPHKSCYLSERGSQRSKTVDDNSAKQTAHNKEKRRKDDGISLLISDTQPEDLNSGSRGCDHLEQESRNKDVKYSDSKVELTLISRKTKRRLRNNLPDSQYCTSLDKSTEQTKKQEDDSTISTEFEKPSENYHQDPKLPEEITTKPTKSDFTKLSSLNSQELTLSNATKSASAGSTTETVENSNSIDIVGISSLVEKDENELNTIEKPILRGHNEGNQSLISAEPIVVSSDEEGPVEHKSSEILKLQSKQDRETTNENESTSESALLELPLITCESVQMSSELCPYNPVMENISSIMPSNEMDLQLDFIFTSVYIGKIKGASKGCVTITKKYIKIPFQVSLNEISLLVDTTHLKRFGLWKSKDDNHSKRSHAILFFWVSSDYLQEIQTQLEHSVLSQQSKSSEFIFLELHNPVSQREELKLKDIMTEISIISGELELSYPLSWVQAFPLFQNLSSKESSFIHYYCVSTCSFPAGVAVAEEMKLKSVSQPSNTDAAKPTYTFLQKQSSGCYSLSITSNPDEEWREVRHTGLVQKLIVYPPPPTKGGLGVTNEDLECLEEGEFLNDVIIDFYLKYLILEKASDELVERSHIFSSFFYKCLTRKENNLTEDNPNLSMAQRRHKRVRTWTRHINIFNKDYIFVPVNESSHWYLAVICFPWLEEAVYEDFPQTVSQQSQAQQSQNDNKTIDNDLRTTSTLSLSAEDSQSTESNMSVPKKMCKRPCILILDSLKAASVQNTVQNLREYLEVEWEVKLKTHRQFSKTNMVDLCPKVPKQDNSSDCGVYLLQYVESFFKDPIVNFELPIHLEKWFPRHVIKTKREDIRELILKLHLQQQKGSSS

[12] = system: Vero; assay: Vero cell cytotoxicity, cytotoxicity control for flavivirus capping enzyme inhibitors (AID 588742); format: functional; details: Chlorocebus sabaeus

Sequence of Phospholipase A2 (P04054 whole entry): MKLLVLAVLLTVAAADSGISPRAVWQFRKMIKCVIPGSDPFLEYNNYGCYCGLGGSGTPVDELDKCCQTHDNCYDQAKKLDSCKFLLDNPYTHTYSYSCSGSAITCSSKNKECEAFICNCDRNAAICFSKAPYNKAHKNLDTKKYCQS

Question: Which EC50 [1] does the source give for `COC(=O)[C@@H]1[C@@H](C(=O)OC)C2(c3ccccc3-c3ccccc32)N(c2ccc(Cl)cc2)N1C#N` here?
Answer: Its EC50 is 2.87 µM (inconclusive).

Question: What about the EC50 [2] of the same compound?
Answer: The EC50 was 6.23 µM (active).

Question: And the EC50 [3]?
Answer: Its EC50 is 2.24 µM (active).

Question: And the EC50 [4]?
Answer: Its EC50 is 5.02 µM (active).

Question: And the EC50 [5]?
Answer: Its EC50 is 4.84 µM (active).

Question: For `Nc1ccc2c(c1)C(=O)C(=O)c1ccccc1-2`, which EC50 [1] is on record?
Answer: The EC50 was 2.58 µM (inconclusive).

Question: And the EC50 [2]?
Answer: Its EC50 is 4.11 µM (active).

Question: What about the EC50 [4] of the same compound?
Answer: The EC50 was 3.12 µM (inconclusive).

Question: And the EC50 [5]?
Answer: The EC50 was 4.42 µM (active).

Question: What about the CC50 [6] of the same compound?
Answer: Its CC50 is 7.59 µM (active).

Question: And the IC50 [7]?
Answer: The IC50 was 48.8 µM (inactive).

Question: And the AC50 [8]?
Answer: Its AC50 is 1.06 µM (active).

Question: For `COc1cc(-c2ccc(Nc3ccccc3C(=O)O)c(OC)c2)ccc1Nc1ccccc1C(=O)O`, which AC50 [9] is on record?
Answer: Its AC50 is 4.6 µM (active).

Question: Which results are given for `COc1ccc(OC)c(Nc2cc3ccccc3c(O)n2)c1`?
Answer: IC50 [10]: 1.88 µM (active); IC50 [11]: 2.19 µM (active); AC50 [9]: 2.44 µM (active)

Question: For `COC(CNC(=O)c1ccc2c3c(onc13)-c1ccccc1C2=O)OC`, which CC50 [6] is on record?
Answer: The CC50 was 15.1 µM (active).

Question: And the CC50 [12]?
Answer: The CC50 was 20.4 µM (active).

Question: Which results are given for `O=C(O)c1ccc(NC2=C/C(=N/S(=O)(=O)c3ccccc3)c3ccccc3C2=O)cc1`?
Answer: IC50 [10]: 4.5 µM (active); IC50 [11]: 2.06 µM (active); IC50 [7]: 34.7 µM (inactive); CC50 [12]: 31.4 µM (active)

Question: Which EC50 [3] does the source give for `CCCC(=O)NC(c1ccccc1OC)c1ccc2cccnc2c1O` (centres undefined) here?
Answer: Its EC50 is 0.532 µM (active).

Question: What about the AC50 [8] of the same compound?
Answer: The AC50 was 1.14 µM (active).
